Assays:
CB1R [1] = biological target: T1, CB1R (Homo sapiens, UniProt P21554); test: cell-based; type: cell-based; details: hCB1R CHO cells, data not shown
Description: The cAMP BRET experiments were performed as previously described. Briefly, hCB1R HEK293 cells were transfected with 5 µg/10 cm dish of the CAMYEL biosensor using polyethylenimine. After 24 h, the cells were plated into white 96-well plates (PerkinElmer) at a density of 60,000 cells/well.
Cyclic AMP accumulation was measured using a DiscoverX HitHunter® cAMP Assay for Small Molecules (DiscoverX, Fremont, CA). hCB1R CHO cells were seeded at a density of 40,000 cells/well in 96-well white plates and grown overnight at 37 °C, 5% CO2 in a humidified incubator. […] Vehicle concentration was 1% DMSO, 0.1% BSA. Following agonist incubation, 15 µl of cAMP antibody reagent and 60 µl of working cAMP detection solution (containing 19 parts cAMP lysis buffer, 5 parts Substrate Reagent 1, 1 part Substrate Reagent 2 and 25 parts of cAMP Solution D) were added to all wells. Assay plates were incubated in the dark for 1 hr at room temperature, followed by addition of 60 µl cAMP solution A to all wells and incubation for 3 hr at room temperature in the dark. Plates were read using a GloMax Discover plate-reader (Promega, Madison, WI).

CB1R [2] = biological target: T1, CB1R; design: beta-galactosidase enzyme fragment (EFC; ProLink by own knowledge); method as in PMID 16113085, PMID 18029031; details: cited from earlier work
CB1R [3] = biological target: T1, CB1R; design: beta-galactosidase enzyme fragment (EFC; ProLink by own knowledge); method as in PMID 16113085, PMID 18029031; details: cited from earlier work; remark: listed apart in the source
Male C57Bl/6J mice = test: Cannabinoid-induced tetrad; type: in vivo; details: 10 mg/kg i.p., 30 min prior
Description: Male C57Bl/6J mice (PD > 70) were tested on the cannabinoid-induced tetrad, as previously described.
(i.p.) before testing. The tetrad was performed (1) catalepsy, (2) locomotion, (3) temperature, and (4) analgesia. Catalepsy: time (s) spent immobile with front paws on a plastic rod (1.5cm diameter), at a height of 4.5-cm from the table, before adjusting abnormal posture (either front paws being removed from the bar, or back paws climbing onto bar). Locomotion: horizontal activity (cm) was immediately measured in an open field test, following catalepsy, for 15-min. in 1-min bins. Temperature: rectal temperature (°C) was measured immediately following open-field testing, using a thermometer with rectal probe (Labcorp, Fisher, Waltham, MA). Analgesia: latency (s) to withdraw tail from hot water bath (52 °C), to assess tail-flick antinociception, was completed immediately following temperature readings.

GluN1KD mice [4] = test: Pre-pulse inhibition in GluN1KD mice; type: in vivo; details: ABM300 10 mg/kg, OLA 1 mg/kg i.p.
Description: Pre-Pulse Inhibition (PPI): PPI of the acoustic startle response was measured on day 3, via SR-LAB equipment and software from San Diego Instruments. Accelerometers were calibrated to 700±5 mV and output voltages were amplified and analyzed for voltage changes using SR Analysis (San Diego Instruments, San Diego, CA, USA), and exported as an excel file. Background white noise was maintained at 65dB. PPI was measured in a 30-min test with 80 randomized trials of: (1) 10 trials pulse alone (2) 10 trials pre-pulse alone (for each pre-pulse), (3) 10 trials pre-pulse plus pulse (for each pre-pulse), and (4) 10 trials no pulse. 5 pulse alone trials were performed before and after the 80 trials, totaling 90 trials per run. The pre-pulse (4dB, 8dB, or 16dB) was presented 100ms prior to the startle pulse […]. The inter-stimulus interval (ISI) was randomized between 5 and 20s. Experimental mice were placed in a cylindrical tube on a platform in a soundproof chamber. Mice were allowed to acclimatize in the chamber and to the background noise for 300s, followed by 5 consecutive pulse alone trials, then by 80 randomized trials (as described above) and then 5 consecutive pulse alone trials. Pre-pulse inhibition was measured as a decrease in the amplitude of startle response to a 100dB acoustic startle pulse, following each pre-pulse (4dB, 8dB and 16dB).

Male Sprague Dawley rats = test: Conditioned avoidance response (CAR); type: in vivo; details: rats, ABM300 10 mg/kg, olanzapine 1 mg/kg i.p. daily
Description: Male Sprague Dawley rats (PD>63) were trained on a CAR protocol and responding following drug exposure was determined. […] Animals were trained to learn a house light (CS) as predictive of an avoidable 0.6mA scrambled foot shock (US). Each session consisted of 50 trials and animals avoided >70% of trials on the final acquisition session were tested for CAR during vehicle baseline, drug exposure, and re-emergence. In addition to CAR testing, both temperature and catalepsy were recorded in these animals (measure of potential CB1R agonism). Temperature: recorded on first day of drug exposure, prior to injection and 60-90-min. following drug exposure.

GluN1KD mice [5] = test: Open-field test in GluN1KD mice; details: ABM300 10 mg/kg, OLA 1 mg/kg i.p., 30 min before test
C57Bl/6J mice = type: in vivo; details: 10 mg/kg i.p., 30 min before test, compared to vehicle
From the text: (i.p.) before testing. The EPM was composed of 4 opaque-white arms (2 opposite arms closed, 2 opposite arms open), arranged in a plus shape, with an open center. The dimensions were as follows; maze elevation (38.7cm), open arm (L:30.5 cm, W:5 cm, H:0 cm), closed arm (L:30.5 cm, W:5 cm, H:15.2 cm) and center (5 cm x 5 cm). The experiment mouse was placed in the center of the maze and allowed to freely explore the maze for 8-min (50lux), while being tracked with an overhead camera. Open and closed arm times were recorded and collected by Biobserve Viewer3 software. The percentage of time spent in the open arms as compared to closed arms and center time was calculated and expressed as a percent of time spent in the open or closed arms of the maze.

T1 sequence (P21554 whole entry): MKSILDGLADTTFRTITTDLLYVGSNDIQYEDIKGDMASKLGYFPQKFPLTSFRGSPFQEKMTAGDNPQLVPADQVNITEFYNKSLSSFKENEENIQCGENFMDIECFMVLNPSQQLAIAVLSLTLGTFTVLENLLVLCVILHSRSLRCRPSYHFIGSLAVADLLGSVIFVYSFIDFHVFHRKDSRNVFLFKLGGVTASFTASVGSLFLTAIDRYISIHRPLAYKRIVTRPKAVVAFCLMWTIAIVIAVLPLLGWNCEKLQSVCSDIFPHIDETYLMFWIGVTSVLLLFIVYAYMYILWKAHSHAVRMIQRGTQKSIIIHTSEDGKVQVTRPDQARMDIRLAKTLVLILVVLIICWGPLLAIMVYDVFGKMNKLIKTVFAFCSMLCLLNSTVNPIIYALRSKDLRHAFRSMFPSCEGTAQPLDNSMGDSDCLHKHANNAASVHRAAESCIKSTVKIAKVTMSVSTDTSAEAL

CCCCCCC(C)(C)c1ccc([C@@H]2C[C@H](O)CC[C@H]2CCCO)c(O)c1 [CP55,940, reference compound]
effect on forskolin-stimulated cAMP accumulation (CB1R [1]): inhibited

CCc1c(C(=O)NCCc2ccc(N3CCCCC3)cc2)[nH]c2ccc(Cl)cc12 [Org275]
Bmax of [3H] CB1R agonist binding (CB1R [2]): increases the Bmax
CB1R agonist-mediated signaling (CB1R [3]): acts as an inhibitor

CCCCCc1cc(O)c2c(c1)OC(C)(C)[C@@H]1CCC(C)=C[C@@H]21 [THC, Δ^9-tetrahydrocannabinol, reference compound]
tetrad: catalepsy-induced immobility time (Male C57Bl/6J mice): produced effects
tetrad: percent inhibition of locomotor activity (15 min) (Male C57Bl/6J mice): produced effects
tetrad: rectal temperature (Male C57Bl/6J mice): produced effects
tetrad: tail withdrawal (% MPE) (Male C57Bl/6J mice): produced effects

Cc1cc2c(s1)Nc1ccccc1N=C2N1CCN(C)CC1 [olanzapine, reference compound]
acoustic startle response (GluN1KD mice [4]): did not respond
sensorimotor gating deficits (PPI; 4, 8, 16 dB) (GluN1KD mice [4]): did not respond
escape failures in CAR (Male Sprague Dawley rats): neither ABM300 nor olanzapine affected escape failures
escape responding during CAR (Male Sprague Dawley rats): enhanced escape responding
avoidance behavior in CAR (Male Sprague Dawley rats; 30 min prior): attenuated avoidance behavior
exaggerated stereotypic activity (GluN1KD mice [5]): Effects of ABM300 are similar to those seen with olanzapine
novelty-induced hyperactivity (distance traveled) (GluN1KD mice [5]): Effects of ABM300 are similar to those seen with olanzapine
rearing behavior (vertical exploration) (GluN1KD mice [5]): Effects of ABM300 are similar to those seen with olanzapine

Cc1c(C(=O)NN2CCCCC2)nn(-c2ccc(Cl)cc2Cl)c1-c1ccc(Cl)cc1 [rimonabant, reference compound]
time spent in the open arms (EPM) (C57Bl/6J mice): significantly reduced

From article PMC7852560 (Neuropsychopharmacology, 2020)
